Measurements as given in article PMC3079261 (Tetrahedron letters, 2011).

Target: FGFR1 kinase domain (Homo sapiens, UniProt P11362)
Assay: ALPHAScreen assay of inhibition of phosphorylation by FGFR1 kinase
Format: biochemical

Chain of FGFR1 kinase domain (P11362 478-767 limits assumed): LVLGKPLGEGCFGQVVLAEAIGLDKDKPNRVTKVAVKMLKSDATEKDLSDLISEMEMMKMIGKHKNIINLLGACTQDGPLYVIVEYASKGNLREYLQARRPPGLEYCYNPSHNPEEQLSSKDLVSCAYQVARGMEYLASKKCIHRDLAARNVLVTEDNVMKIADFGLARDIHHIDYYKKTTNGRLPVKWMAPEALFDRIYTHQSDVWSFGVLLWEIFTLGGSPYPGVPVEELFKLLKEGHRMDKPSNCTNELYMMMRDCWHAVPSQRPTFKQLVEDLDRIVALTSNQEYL

Row | IC50 [µM] | SMILES
1 | 28 | COc1cc(OC)cc(-c2ccc3c(c2)sc2nc(-c4ccc(OCC(=O)O)c(OC)c4)[nH]c(=O)c23)c1 [compound 6, 2-(4-(7-(3,5-dimethoxyphenyl)-4-oxo-3,4-dihydrobenzo[4,5]thieno[2,3-d]pyrimidin-2-yl)-2-methoxyphenoxy)acetic acid]
2 | 21 | COc1cc(OC)cc(-c2ccc3c(c2)sc2nc(CCC(=O)O)[nH]c(=O)c23)c1 [compound 7, 3-(7-(3,5-dimethoxyphenyl)-4-oxo-3,4-dihydrobenzo[4,5]thieno[2,3-d]pyrimidin-2-yl)propanoic acid]
